Experimental data from US9133158B2, “Bicyclic dihydroisoquinoline-1-one derivatives” (Hoffmann-La Roche Inc., priority 2011, dated 2015).

What was measured:
[1] = target: T1, human CYP11B1 (Homo sapiens, UniProt P15538); experiment: G-402 cellular enzyme assay, human CYP11B1 (cortisol release, HTRF); assay type: cell-based; conditions: G-402 cells, 1 μM Deoxycortisol
T1 construct: expressed in transfected cells
T1 sequence (P15538 25-503): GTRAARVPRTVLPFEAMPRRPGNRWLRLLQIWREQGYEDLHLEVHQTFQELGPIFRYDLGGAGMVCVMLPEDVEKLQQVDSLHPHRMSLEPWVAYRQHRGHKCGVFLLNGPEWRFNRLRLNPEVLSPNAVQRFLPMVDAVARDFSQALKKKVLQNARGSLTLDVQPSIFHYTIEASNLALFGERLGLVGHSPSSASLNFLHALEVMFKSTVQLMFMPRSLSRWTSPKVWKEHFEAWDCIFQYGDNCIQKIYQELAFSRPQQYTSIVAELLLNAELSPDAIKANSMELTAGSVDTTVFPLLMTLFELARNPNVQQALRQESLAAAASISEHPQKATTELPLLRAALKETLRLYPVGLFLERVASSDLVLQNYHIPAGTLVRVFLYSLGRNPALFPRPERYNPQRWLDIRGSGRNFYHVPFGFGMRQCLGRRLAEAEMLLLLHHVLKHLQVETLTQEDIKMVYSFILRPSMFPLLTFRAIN
Summary of the method: (§1)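 Cellular format in stably transfected G-402 cells over 16 h. HTRF quantified aldosterone (CYP11B2, 1 μM deoxycorticosterone substrate) or cortisol (CYP11B1, 1 μM deoxycortisol substrate); EC50 obtained by fitting a 4-parameter sigmoid to dose–response data.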

[2] = target: T2, human CYP11B2 (Homo sapiens, UniProt P19099); experiment: G-402 cellular enzyme assay, human CYP11B2 (aldosterone release, HTRF); assay type: cell-based; conditions: G-402 cells, 1 μM Deoxycorticosterone
T2 construct: expressed in transfected cells
T2 sequence (P19099 25-503): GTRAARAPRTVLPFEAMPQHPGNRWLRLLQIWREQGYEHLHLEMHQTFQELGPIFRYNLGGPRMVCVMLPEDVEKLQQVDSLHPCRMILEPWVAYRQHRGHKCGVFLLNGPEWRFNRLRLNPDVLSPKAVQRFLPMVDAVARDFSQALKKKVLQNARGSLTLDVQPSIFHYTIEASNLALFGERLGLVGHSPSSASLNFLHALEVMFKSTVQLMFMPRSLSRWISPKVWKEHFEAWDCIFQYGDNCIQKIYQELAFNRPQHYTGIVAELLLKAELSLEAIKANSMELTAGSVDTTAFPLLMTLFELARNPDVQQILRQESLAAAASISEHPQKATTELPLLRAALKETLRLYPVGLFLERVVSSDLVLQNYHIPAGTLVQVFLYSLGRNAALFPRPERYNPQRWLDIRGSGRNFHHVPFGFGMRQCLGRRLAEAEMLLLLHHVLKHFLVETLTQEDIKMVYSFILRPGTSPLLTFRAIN
Summary of the method: as §1

EC50 [1] [nM]	EC50 [2] [nM]	Compound
1310	14.3	CC1(C)c2cc(Cl)ccc2C(=O)N1c1cncc(CNC(=O)c2cccnc2Cl)c1 [Example 433, 2-Chloro-N-[5-(6-chloro-1,1-dimethyl-3-oxo-1,3-dihydro-isoindol-2-yl)-pyridin-3-ylmethyl]-nicotinamide]
228	6.6	CC1(C)c2cc(Cl)ccc2C(=O)N1c1cncc(CNC(=O)c2ccccn2)c1 [Example 434, Pyridine-2-carboxylic acid [5-(6-chloro-1,1-dimethyl-3-oxo-1,3-dihydro-isoindol-2-yl)-pyridin-3-ylmethyl]-amide]
256	8.8	Cn1cncc1C(=O)NCc1cncc(N2C(=O)c3ccc(Cl)cc3C2(C)C)c1 [Example 435, 3-Methyl-3H-imidazole-4-carboxylic acid [5-(6-chloro-1,1-dimethyl-3-oxo-1,3-dihydro-isoindol-2-yl)-pyridin-3-ylmethyl]-amide]
158	5.8	Cc1ccc(C(=O)NCc2cncc(N3C(=O)c4ccc(Cl)cc4C3(C)C)c2)cn1 [Example 436, N-[5-(6-Chloro-1,1-dimethyl-3-oxo-1,3-dihydro-isoindol-2-yl)-pyridin-3-ylmethyl]-6-methyl-nicotinamide]
1640	77.6	CC1(C)c2cc(Cl)ccc2C(=O)N1c1cncc(CNC(=O)c2ccncc2Cl)c1 [Example 437, 3-Chloro-N-[5-(6-chloro-1,1-dimethyl-3-oxo-1,3-dihydro-isoindol-2-yl)-pyridin-3-ylmethyl]-isonicotinamide]
202	3.8	CC1(C)c2cc(Cl)ccc2C(=O)N1c1cncc(CNC(=O)c2cccnc2)c1 [Example 438, N-[5-(6-Chloro-1,1-dimethyl-3-oxo-1,3-dihydro-isoindol-2-yl)-pyridin-3-ylmethyl]-nicotinamide]
6900	119	Cc1ncccc1C(=O)NCc1cncc(N2C(=O)c3ccc(Cl)cc3C2(C)C)c1 [Example 439, N-[5-(6-Chloro-1,1-dimethyl-3-oxo-1,3-dihydro-isoindol-2-yl)-pyridin-3-ylmethyl]-2-methyl-nicotinamide]
1270	17.6	Cc1ccncc1C(=O)NCc1cncc(N2C(=O)c3ccc(Cl)cc3C2(C)C)c1 [Example 440, N-[5-(6-Chloro-1,1-dimethyl-3-oxo-1,3-dihydro-isoindol-2-yl)-pyridin-3-ylmethyl]-4-methyl-nicotinamide]
988	16.6	CC(=O)N1CCC(Oc2cncc(N3C(=O)c4ccc(Cl)cc4C3(C)C)c2)C1 (stereo not drawn) [Example 441, 2-[5-(1-Acetyl-pyrrolidin-3-yloxy)-pyridin-3-yl]-5-chloro-3,3-dimethyl-2,3-dihydro-isoindol-1-one]
427	5.6	CC(=O)N1CC[C@@H](Oc2cncc(N3C(=O)c4ccc(Cl)cc4C3(C)C)c2)C1 [Example 442, 2-[5-((R)-1-Acetyl-pyrrolidin-3-yloxy)-pyridin-3-yl]-5-chloro-3,3-dimethyl-2,3-dihydro-isoindol-1-one]
1170	9	CC(=O)N1CC[C@H](Oc2cncc(N3C(=O)c4ccc(Cl)cc4C3(C)C)c2)C1 [Example 443, 2-[5-((S)-1-Acetyl-pyrrolidin-3-yloxy)-pyridin-3-yl]-5-chloro-3,3-dimethyl-2,3-dihydro-isoindol-1-one]
514	8.4	CCC(=O)N1CCC(Oc2cncc(N3C(=O)c4ccc(Cl)cc4C3(C)C)c2)C1 (stereo not drawn) [Example 444, 5-Chloro-3,3-dimethyl-2-[5-(1-propionyl-pyrrolidin-3-yloxy)-pyridin-3-yl]-2,3-dihydro-isoindol-1-one]
914	7.4	CC1(C)c2cc(Cl)ccc2C(=O)N1c1cncc(OC2CCN(S(C)(=O)=O)C2)c1 (stereo not drawn) [Example 445, 5-Chloro-2-[5-(1-methanesulfonyl-pyrrolidin-3-yloxy) -pyridin-3-yl]-3,3-dimethyl-2,3-dihydro-isoindol-1-one]
263	185	CCS(=O)(=O)N1CCC(Oc2cncc(N3C(=O)c4ccc(Cl)cc4C3(C)C)c2)C1 (stereo not drawn) [Example 446, 5-Chloro-2-[5-(1-ethanesulfonyl-pyrrolidin-3-yloxy) -pyridin-3-yl]-3,3-dimethyl-2,3-dihydro-isoindol-1-one]
233	1.9	CCS(=O)(=O)N1CC[C@@H](Oc2cncc(N3C(=O)c4ccc(Cl)cc4C3(C)C)c2)C1 [Example 447, 5-Chloro-2-[5-((R)-1-ethanesulfonyl-pyrrolidin-3-yloxy)-pyridin-3-yl]-3,3-dimethyl-2,3-dihydro-isoindol-1-one]
1980	21.2	CCS(=O)(=O)N1CC[C@H](Oc2cncc(N3C(=O)c4ccc(Cl)cc4C3(C)C)c2)C1 [Example 448, 5-Chloro-2-[5-((S)-1-ethanesulfonyl-pyrrolidin-3-yloxy)-pyridin-3-yl]-3,3-dimethyl-2,3-dihydro-isoindol-1-one]
235	2.8	CC(=O)N1CCC(Oc2cncc(N3C(=O)c4ccc(Cl)cc4C3(C)C)c2)CC1 [Example 449, 2-[5-(1-Acetyl-piperidin-4-yloxy)-pyridin-3-yl]-5-chloro-3,3-dimethyl-2,3-dihydro-isoindol-1-one]
20100	122	CC(=O)N1CC(Oc2cncc(N3C(=O)c4ccc(Cl)cc4C3(C)C)c2)C1 [Example 450, 2-[5-(1-Acetyl-azetidin-3-yloxy)-pyridin-3-yl]-5-chloro-3,3-dimethyl-2,3-dihydro-isoindol-1-one]
5330	38.9	CCC(=O)N1CC(Oc2cncc(N3C(=O)c4ccc(Cl)cc4C3(C)C)c2)C1 [Example 451, 5-Chloro-3,3-dimethyl-2-[5-(1-propionyl-azetidin-3-yloxy)-pyridin-3-yl]-2,3-dihydro-isoindol-1-one]
1740	26.8	CC1(C)c2cc(Cl)ccc2C(=O)N1c1cncc(OC2CN(S(C)(=O)=O)C2)c1 [Example 452, 5-Chloro-2-[5-(1-methanesulfonyl-azetidin-3-yloxy)-pyridin-3-yl]-3,3-dimethyl-2,3-dihydro-isoindol-1-one]
876	5.1	CCS(=O)(=O)N1CC(Oc2cncc(N3C(=O)c4ccc(Cl)cc4C3(C)C)c2)C1 [Example 453, 5-Chloro-2-[5-(1-ethanesulfonyl-azetidin-3-yloxy)-pyridin-3-yl]-3,3-dimethyl-2,3-dihydro-isoindol-1-one]
62	6.6	CC1(C)c2cc(Cl)ccc2C(=O)N1c1cncc(N2CC[C@H](O)C2)c1 [Example 454, 5-Chloro-2-[5-((S)-3-hydroxy-pyrrolidin-1-yl)-pyridin-3-yl]-3,3-dimethyl-2,3-dihydro-isoindol-1-one]
717	8.6	CC(=O)N1CCN(c2cncc(N3C(=O)c4ccc(Cl)cc4C3(C)C)c2)CC1 [Example 455, 2-[5-(4-Acetyl-piperazin-1-yl)-pyridin-3-yl]-5-chloro-3,3-dimethyl-2,3-dihydro-isoindol-1-one]
106	1.2	CCC(=O)N1CCN(c2cncc(N3C(=O)c4ccc(Cl)cc4C3(C)C)c2)CC1 [Example 456, 5-Chloro-3,3-dimethyl-2-[5-(4-propionyl-piperazin-1-yl)-pyridin-3-yl]-2,3-dihydro-isoindol-1-one]
